The NIST ThermoML archive (doi:10.1021/je2007605)

Columns and labels:
[1] = for Normal melting temperature: DTA
[2] = Molar enthalpy of transition or fusion; details: Crystal; DSC

COC(=O)c1ccc(N(C)C)cc1 [methyl 4-(dimethylamino)benzoate]
vapor or sublimation pressure [kPa], [1]
Details | Crystal | Liquid
311.12 K, Calculated from knudsen effusion weight loss | 8.2e-05 | –
313.19 K, Calculated from knudsen effusion weight loss | 0.000104 | –
315.17 K, Calculated from knudsen effusion weight loss | 0.000131 | –
317.11 K, Calculated from knudsen effusion weight loss | 0.000166 | –
319.18 K, Calculated from knudsen effusion weight loss | 0.000211 | –
323.12 K, Calculated from knudsen effusion weight loss | 0.000332 | –
324.96 K, Closed cell (Static) method | 0.00043 | –
325.18 K, Calculated from knudsen effusion weight loss | 0.000421 | –
326.93 K, Closed cell (Static) method | 0.00053 | –
327.16 K, Calculated from knudsen effusion weight loss | 0.000525 | –
328.93 K, Closed cell (Static) method | 0.00068 | –
329.11 K, Calculated from knudsen effusion weight loss | 0.000662 | –
330.9 K, Closed cell (Static) method | 0.00084 | –
331.17 K, Calculated from knudsen effusion weight loss | 0.000829 | –
332.91 K, Closed cell (Static) method | 0.00105 | –
333.16 K, Calculated from knudsen effusion weight loss | 0.001019 | –
334.88 K, Closed cell (Static) method | 0.0013 | –
336.89 K, Closed cell (Static) method | 0.00161 | –
338.85 K, Closed cell (Static) method | 0.00199 | –
340.86 K, Closed cell (Static) method | 0.00246 | –
342.81 K, Closed cell (Static) method | 0.00298 | –
344.83 K, Closed cell (Static) method | 0.00365 | –
346.78 K, Closed cell (Static) method | 0.00447 | –
348.79 K, Closed cell (Static) method | 0.00542 | –
350.75 K, Closed cell (Static) method | 0.00655 | –
352.74 K, Closed cell (Static) method | 0.00799 | –
352.78 K, Closed cell (Static) method | – | 0.01105
354.73 K, Closed cell (Static) method | 0.0096 | –
354.77 K, Closed cell (Static) method | – | 0.01276
356.72 K, Closed cell (Static) method | 0.01168 | –
356.75 K, Closed cell (Static) method | – | 0.01475
358.69 K, Closed cell (Static) method | 0.01403 | –
358.73 K, Closed cell (Static) method | – | 0.01697
360.68 K, Closed cell (Static) method | 0.01658 | –
360.72 K, Closed cell (Static) method | – | 0.01953
362.67 K, Closed cell (Static) method | 0.01987 | –
362.7 K, Closed cell (Static) method | – | 0.02236
364.65 K, Closed cell (Static) method | 0.02318 | –
364.68 K, Closed cell (Static) method | – | 0.02563
366.61 K, Closed cell (Static) method | 0.02725 | –
366.67 K, Closed cell (Static) method | – | 0.02928
368.66 K, Closed cell (Static) method | 0.03255 | 0.03341
370.64 K, Closed cell (Static) method | – | 0.03797
372.62 K, Closed cell (Static) method | – | 0.04321
374.62 K, Closed cell (Static) method | – | 0.04885
376.56 K, Closed cell (Static) method | – | 0.05553
378.53 K, Closed cell (Static) method | – | 0.0627
380.52 K, Closed cell (Static) method | – | 0.07058
382.5 K, Closed cell (Static) method | – | 0.07972
384.49 K, Closed cell (Static) method | – | 0.08949
386.42 K, Closed cell (Static) method | – | 0.1006
388.46 K, Closed cell (Static) method | – | 0.1126
390.44 K, Closed cell (Static) method | – | 0.1259

Details | Normal melting temperature [°C]
[1], Crystal | 98.14

Details | Molar enthalpy of transition or fusion [kcal/mol]
[2] | 5.59

COC(=O)c1ccc(C)cc1 [methyl 4-methylbenzoate]
[1], Closed cell (Static) method
Details | vapor or sublimation pressure [kPa]
269.27 K, Crystal | 0.0004
271.21 K, Crystal | 0.00052
273.18 K, Crystal | 0.00067
275.19 K, Crystal | 0.00087
277.14 K, Crystal | 0.00112
279.16 K, Crystal | 0.00145
281.08 K, Crystal | 0.00184
283.07 K, Crystal | 0.00235
285.08 K, Crystal | 0.003
287.05 K, Crystal | 0.00377
289.04 K, Crystal | 0.00475
291.04 K, Crystal | 0.00599
293.03 K, Liquid | 0.01066
293.04 K, Crystal | 0.00745
295.02 K, Crystal | 0.00939
295.08 K, Liquid | 0.0127
297.03 K, Crystal | 0.01167
297.05 K, Liquid | 0.01498
299.02 K, Crystal | 0.01451
299.04 K, Liquid | 0.01755
300.98 K, Crystal | 0.01795
301.03 K, Liquid | 0.02057
303 K, Liquid | 0.02404
305.03 K, Liquid | 0.02784
306.98 K, Liquid | 0.03242
308.97 K, Liquid | 0.03825
310.97 K, Liquid | 0.0434
312.95 K, Liquid | 0.05065
314.97 K, Liquid | 0.05815
316.99 K, Liquid | 0.06735
318.9 K, Liquid | 0.07685
320.95 K, Liquid | 0.08945
322.94 K, Liquid | 0.1009
324.92 K, Liquid | 0.1171
326.96 K, Liquid | 0.132
328.85 K, Liquid | 0.151
330.92 K, Liquid | 0.1689
332.84 K, Liquid | 0.1934
334.91 K, Liquid | 0.2162
336.82 K, Liquid | 0.2454
338.88 K, Liquid | 0.2748
340.75 K, Liquid | 0.31
342.8 K, Liquid | 0.3469
344.71 K, Liquid | 0.3884
346.77 K, Liquid | 0.4353
348.75 K, Liquid | 0.484

Details | Normal melting temperature [°C]
[1], Crystal | 31.94

Details | Molar enthalpy of transition or fusion [kcal/mol]
[2] | 4.83
